Test results reported in PubChem BioAssay AID330 (DTP/NCI, 2004).
“And” between values parts separate entries of the source, which are not always exact repeats. Equal values may be shown once. Inconclusive results and toxic doses are left out.

Tested on: P388 leukemia ip, CD2F1 mice, survival T/C
Test: NCI In Vivo Anticancer Drug Screen. Data for tumor model P388 Leukemia (intraperitoneal) in CD2F1 (CDF1) mice
Conditions: endpoint: median survival time, higher = longer survival
Outline: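 Mice carrying the transplanted tumor received test compound or vehicle. Survival was recorded in each group, and the value is the treated-group measurement divided by that of the vehicle-treated control group.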

[1] = dose: 50.0 mg/kg/injection, schedule: Q01DX005 (ip), vehicle: saline with Tween-80
[2] = dose: 100.0 mg/kg/injection, schedule: Q01DX005 (ip), vehicle: saline with Tween-80
[3] = dose: 200.0 mg/kg/injection, schedule: Q01DX005 (ip), vehicle: saline with Tween-80
[4] = dose: 100.0 mg/kg/injection, schedule: Q01DX001 (ip), vehicle: saline with Tween-80
[5] = dose: 200.0 mg/kg/injection, schedule: Q01DX001 (ip), vehicle: saline with Tween-80
[6] = dose: 400.0 mg/kg/injection, schedule: Q01DX001 (ip), vehicle: saline with Tween-80
[7] = dose: 100.0 mg/kg/injection, schedule: Q01DX001 (ip), vehicle: Klucel (hydroxypropylcellulose) (HPC)
[8] = dose: 200.0 mg/kg/injection, schedule: Q01DX001 (ip), vehicle: Klucel (hydroxypropylcellulose) (HPC)
[9] = dose: 400.0 mg/kg/injection, schedule: Q01DX001 (ip), vehicle: Klucel (hydroxypropylcellulose) (HPC)
[10] = dose: 50.0 mg/kg/injection, schedule: Q01DX005 (ip), vehicle: saline
[11] = dose: 100.0 mg/kg/injection, schedule: Q01DX005 (ip), vehicle: saline
[12] = dose: 200.0 mg/kg/injection, schedule: Q01DX005 (ip), vehicle: saline
[13] = dose: 25.0 mg/kg/injection, schedule: Q01DX005 (ip), vehicle: Klucel (hydroxypropylcellulose) (HPC)
[14] = dose: 50.0 mg/kg/injection, schedule: Q01DX005 (ip), vehicle: Klucel (hydroxypropylcellulose) (HPC)
[15] = dose: 100.0 mg/kg/injection, schedule: Q01DX005 (ip), vehicle: Klucel (hydroxypropylcellulose) (HPC)
[16] = dose: 100.0 mg/kg/injection, schedule: Q04DX003 (ip), vehicle: saline with Tween-80
[17] = dose: 60.0 mg/kg/injection, schedule: Q01DX005 (ip), vehicle: saline with Tween-80
[18] = dose: 120.0 mg/kg/injection, schedule: Q01DX005 (ip), vehicle: saline with Tween-80
[19] = dose: 240.0 mg/kg/injection, schedule: Q01DX005 (ip), vehicle: saline with Tween-80
[20] = dose: 100.0 mg/kg/injection, schedule: Q01DX009 (ip), vehicle: saline with Tween-80
[21] = dose: 200.0 mg/kg/injection, schedule: Q01DX009 (ip), vehicle: saline with Tween-80
[22] = dose: 400.0 mg/kg/injection, schedule: Q01DX009 (ip), vehicle: saline with Tween-80
[23] = dose: 50.0 mg/kg/injection, schedule: Q01DX009 (ip), vehicle: saline with Tween-80
[24] = dose: 50.0 mg/kg/injection, schedule: Q01DX009 (ip), vehicle: Klucel (hydroxypropylcellulose) (HPC)
[25] = dose: 100.0 mg/kg/injection, schedule: Q01DX009 (ip), vehicle: Klucel (hydroxypropylcellulose) (HPC)
[26] = dose: 200.0 mg/kg/injection, schedule: Q01DX009 (ip), vehicle: Klucel (hydroxypropylcellulose) (HPC)
[27] = dose: 100.0 mg/kg/injection, schedule: Q04DX002 (ip), vehicle: Klucel (hydroxypropylcellulose) (HPC)
[28] = dose: 200.0 mg/kg/injection, schedule: Q04DX002 (ip), vehicle: Klucel (hydroxypropylcellulose) (HPC)
[29] = dose: 400.0 mg/kg/injection, schedule: Q04DX002 (ip), vehicle: Klucel (hydroxypropylcellulose) (HPC)
[30] = dose: 50.0 mg/kg/injection, schedule: Q01DX009 (ip), vehicle: saline
[31] = dose: 25.0 mg/kg/injection, schedule: Q01DX009 (ip), vehicle: saline with Tween-80

Structure (SMILES): CC1(C)Cc2nc3ccccc3nc2-c2ccccc21
- T/C [1]: 101 % of control
- T/C [2]: 98 % of control
- T/C [3]: 100 % of control

Structure (SMILES): Cc1ccc(OCC2CO2)c(Br)c1 (configuration not stated)
- T/C (dose: 25.0 mg/kg/injection, schedule: Q01DX005 (ip), vehicle: saline with Tween-80): 101 % of control and 104 % of control
- T/C [1]: 100 % of control and 106 % of control (2×)
- T/C [2]: 101 % of control and 96 % of control
- T/C [3]: 101 % of control and 105 % of control and 111 % of control

Structure (SMILES): CC1(C)CSC(=S)SC1
- T/C (dose: 25.0 mg/kg/injection, schedule: Q04DX002 (ip), vehicle: saline): 100 % of control
- T/C (dose: 50.0 mg/kg/injection, schedule: Q04DX002 (ip), vehicle: saline): 97 % of control
- T/C (dose: 100.0 mg/kg/injection, schedule: Q04DX002 (ip), vehicle: saline with Tween-80): 110 % of control
- T/C (dose: 100.0 mg/kg/injection, schedule: Q04DX002 (ip), vehicle: saline): 103 % of control

Structure (SMILES): c1cc(Oc2ccc3ccncc3c2)c2ccncc2c1
- T/C [4]: 100 % of control
- T/C [5]: 100 % of control
- T/C [6]: 95 % of control

Structure (SMILES): CCC1(CC)CCC(C(=O)OC)/C1=N\Nc1ccc([N+](=O)[O-])cc1[N+](=O)[O-] (configuration not stated)
- T/C [7]: 102 % of control
- T/C [8]: 98 % of control
- T/C [9]: 100 % of control

Structure (SMILES): CCCNCC(=O)Nc1ccccc1NC(=O)CNCCC
- T/C [10]: 100 % of control
- T/C [11]: 102 % of control
- T/C [12]: 100 % of control

Structure (SMILES): CN(C)C1=NC(NC2CCCCC2)(N(C)C)OC(N(C)C)=N1 (configuration not stated)
- T/C [13]: 105 % of control
- T/C [14]: 96 % of control
- T/C [15]: 100 % of control

Structure (SMILES): O=C(/C=C/c1ccccc1)Oc1ccccc1[N+](=O)[O-]
- T/C [7]: 92 % of control
- T/C [8]: 93 % of control
- T/C [9]: 92 % of control

Structure (SMILES): Nc1ccc(N=Nc2ccc(S(=O)(=O)O)cc2)cc1
- T/C [16]: 95 % of control
- T/C (dose: 200.0 mg/kg/injection, schedule: Q04DX003 (ip), vehicle: saline with Tween-80): 100 % of control
- T/C (dose: 400.0 mg/kg/injection, schedule: Q04DX003 (ip), vehicle: saline with Tween-80): 100 % of control

Structure (SMILES): O=C(O)c1cccc(C(=O)O)c1S(=O)(=O)c1ccccc1
- T/C [4]: 99 % of control
- T/C [5]: 98 % of control
- T/C [6]: 95 % of control

Structure (SMILES): CCOC(=O)/C=C1\CCC(C)n2c1nccc2=O (configuration not stated)
- T/C [17]: 97 % of control
- T/C [18]: 101 % of control
- T/C [19]: 98 % of control

Structure (SMILES): COc1cc2c(cc1OC)C(Cc1ccc3cc(OC)c(OC)cc3c1)=NCC2
- T/C [20]: 90 % of control
- T/C [21]: 90 % of control
- T/C [22]: 100 % of control

Structure (SMILES): NNC(=O)Cc1cccc2ccc(Cl)cc12
- T/C (dose: 60.0 mg/kg/injection, schedule: Q01DX005 (ip), vehicle: Klucel (hydroxypropylcellulose) (HPC)): 92 % of control
- T/C (dose: 120.0 mg/kg/injection, schedule: Q01DX005 (ip), vehicle: Klucel (hydroxypropylcellulose) (HPC)): 88 % of control

Structure (SMILES): CC1(O)CCC(O)CC1CC(=O)O (configuration not stated)
- T/C [10]: 107 % of control
- T/C [11]: 100 % of control
- T/C [12]: 105 % of control

Structure (SMILES): Cc1sc2ccccc2c(=O)c1CCl
- T/C [17]: 111 % of control
- T/C [18]: 104 % of control

Structure (SMILES): CC1=NN(C(=O)c2ccncc2)C(=O)C1N=Nc1ccc(Cl)cc1 (configuration not stated)
- T/C [23]: 104 % of control
- T/C [20]: 99 % of control
- T/C [21]: 105 % of control

Structure (SMILES): NS(=O)(=O)c1ccc(NC(=S)S)cc1
- T/C [24]: 107 % of control
- T/C [25]: 107 % of control
- T/C [26]: 91 % of control

Structure (SMILES): O=C(C(=O)N1CCC(O)CC1)c1c[nH]c2ccccc12
- T/C [24]: 98 % of control
- T/C [25]: 101 % of control
- T/C [26]: 100 % of control

Structure (SMILES): CCOC(=O)NCNC(=O)OCC
- T/C [24]: 100 % of control
- T/C [25]: 102 % of control
- T/C [27]: 117 % of control
- T/C [28]: 107 % of control
- T/C [29]: 110 % of control

Structure (SMILES): O=S(=O)(c1ccc(NC(=S)NCc2ccco2)cc1)N1CCCCC1
- T/C [24]: 88 % of control
- T/C [25]: 93 % of control
- T/C [26]: 92 % of control

Structure (SMILES): O=S(=O)(O)SCCN1CCCCC1
- T/C (dose: 12.5 mg/kg/injection, schedule: Q01DX009 (ip), vehicle: saline): 110 % of control
- T/C (dose: 25.0 mg/kg/injection, schedule: Q01DX009 (ip), vehicle: saline): 100 % of control
- T/C [30]: 100 % of control

Structure (SMILES): COC(=O)CCC(=O)N(C)CCc1c[nH]c2ccccc12
- T/C [20]: 90 % of control
- T/C [21]: 90 % of control
- T/C [22]: 90 % of control

Structure (SMILES): CN1CCN(C(=O)CCSc2nc(-c3ccccc3)c(-c3ccccc3)o2)CC1
- T/C [30]: 110 % of control
- T/C (dose: 100.0 mg/kg/injection, schedule: Q01DX009 (ip), vehicle: saline): 110 % of control

Structure (SMILES): c1ccc(C(NC2=NCCCCCC2)c2ccco2)cc1 (configuration not stated)
- T/C (dose: 7.5 mg/kg/injection, schedule: Q01DX005 (ip), vehicle: saline with Tween-80): 99 % of control
- T/C (dose: 15.0 mg/kg/injection, schedule: Q01DX005 (ip), vehicle: saline with Tween-80): 93 % of control
- T/C (dose: 30.0 mg/kg/injection, schedule: Q01DX005 (ip), vehicle: saline with Tween-80): 101 % of control

Structure (SMILES): Cc1ccc(S(=O)(=O)OCCN2CC2)cc1
- T/C [23]: 94 % of control
- T/C [20]: 89 % of control
- T/C [21]: 99 % of control

Structure (SMILES): O=C(O)c1cc(C(=O)O)c(C(=O)O)cc1C(=O)O
- T/C (dose: 50.0 mg/kg/injection, schedule: Q01DX009 (ip), vehicle: water): 96 % of control
- T/C (dose: 100.0 mg/kg/injection, schedule: Q01DX009 (ip), vehicle: water): 100 % of control
- T/C (dose: 200.0 mg/kg/injection, schedule: Q01DX009 (ip), vehicle: water): 99 % of control

Structure (SMILES): OCNC(=S)c1c(Cl)cccc1Cl
- T/C [31]: 111 % of control
- T/C [23]: 111 % of control
- T/C [20]: 109 % of control
- T/C [21]: 100 % of control

Structure (SMILES): COc1cc(Br)c(/C=C/[N+](=O)[O-])cc1OC
- T/C [16]: 116 % of control

Structure (SMILES): COC(=O)C1C2c3ccccc3C(C1C(=O)OC)[n+]1ccccc12 (configuration not stated)
- T/C [13]: 94 % of control
- T/C [14]: 94 % of control
- T/C [15]: 100 % of control

Structure (SMILES): c1cnc2c(c1)Nc1cnncc1S2
- T/C [27]: 98 % of control
- T/C [28]: 100 % of control
- T/C [29]: 92 % of control

Structure (SMILES): CCOC(=O)c1ccc(N(CCNc2cnc(NC(C)=O)[nH]c2=O)C(C)=O)cc1
- T/C [31]: 92 % of control
- T/C [23]: 88 % of control
- T/C [20]: 92 % of control
- T/C [21]: 89 % of control

Structure (SMILES): C=C(CN1CCN(C)CC1)C(=O)c1ccccc1
- T/C (dose: 1.89 mg/kg/injection, schedule: Q01DX005 (ip), vehicle: saline): 113 % of control
- T/C (dose: 3.75 mg/kg/injection, schedule: Q01DX005 (ip), vehicle: saline): 116 % of control
- T/C (dose: 7.5 mg/kg/injection, schedule: Q01DX005 (ip), vehicle: saline): 105 % of control and 112 % of control

Structure (SMILES): COc1ccc2ccc3ccc(OC)nc3c2n1
- T/C [17]: 92 % of control
- T/C [18]: 95 % of control
- T/C [19]: 108 % of control

Structure (SMILES): Cc1c2c(cn1C)NC(=O)CN=C2c1ccccc1
- T/C [23]: 105 % of control
- T/C [20]: 116 % of control
- T/C [21]: 99 % of control

Structure (SMILES): O=[N+]([O-])c1ccc2c(NCCCCCCNc3c4ccccc4nc4cc([N+](=O)[O-])ccc34)c3ccccc3nc2c1
- T/C (dose: 0.63 mg/kg/injection, schedule: Q01DX009 (ip), vehicle: other): 121 % of control

Structure (SMILES): COC(=O)c1cc2nc(C(C)C)n(Cc3ccccc3)c2cc1C(=O)OC
- T/C [17]: 92 % of control
- T/C [18]: 92 % of control
- T/C [19]: 90 % of control
